Data from ChEMBL document CHEMBL4673334, “In Vivo Biological Evaluation of a Synthetic Royleanone Derivative as a Promising Fast-Acting Trypanocidal Agent by Inducing Mitochondrial-Dependent Necrosis” (J Nat Prod, 2020).
Active and inactive are the calls of the source. The calls are words filed in the database; no cut-off is given here.

What was measured:
[1] = Toxicity in BALB/c mouse infected with Trypanosomal Trypanosoma cruzi MHOM/Pe/2011/Arequipa(DTU V) assessed as effect on total bilirubin level at 20 mg/kg, po administered for 5 days starting at 9 days post infection and measured after 2 days post treatment; type: organism-based; conditions: in vivo, 120 h, time 5 day
[2] = Toxicity in BALB/c mouse infected with Trypanosomal Trypanosoma cruzi MHOM/Pe/2011/Arequipa(DTU V) assessed as effect on AST/GOT level at 20 mg/kg, po administered for 5 days starting at 9 days post infection and measured after 2 days post treatment; type: organism-based; conditions: in vivo, 120 h, time 5 day
Trypanosoma cruzi [3] = assay: Antitrypanosomal activity against Trypanosoma cruzi MHOM/Pe/2011/Arequipa(DTU V) amastigote form infected in BALB/c mouse assessed as reactivation parasitaemia at 20 mg/kg, po administered for 5 days starting at 100 days post infection and measured up to 145 days post infection relative to control; type: functional
Trypanosoma cruzi [4] = assay: Antitrypanosomal activity against Trypanosoma cruzi IRHOD/CO/2008/SN3 (DTU I) epimastigote form assessed as parasite growth inhibition incubated for 48 hrs by resazurin dye based assay; type: functional, organism-based
Trypanosoma cruzi [5] = assay: Antitrypanosomal activity against Trypanosoma cruzi MHOM/Pe/2011/Arequipa(DTU V) epimastigote form assessed as disruption of glycerol level at IC25 concentration incubated for 72 hrs by NMR spectrometric analysis; type: functional, organism-based
Trypanosoma cruzi [6] = assay: Antitrypanosomal activity against Trypanosoma cruzi TINF/CH/1956/Tulahuen (DTU VI) epimastigote form assessed as parasite growth inhibition incubated for 48 hrs by resazurin dye based assay; type: functional, organism-based
[7] = Toxicity in BALB/c mouse infected with Trypanosomal Trypanosoma cruzi MHOM/Pe/2011/Arequipa(DTU V) assessed as reduction in survival at 20 mg/kg, po administered for 5 days starting at 100 days post infection and measured up to 145 days post infection; type: organism-based; conditions: in vivo, 120 h, time 5 day
[8] = Selectivity index, ratio of IC50 for cytotoxicity against African green monkey Vero cells to IC50 for antitrypanosomal activity against Trypanosoma cruzi TINF/CH/1956/Tulahuen (DTU VI) blood stream trypomastigote form; type: toxicity, cell-based; conditions: read-out: Ratio IC50
Trypanosoma cruzi [9] = assay: Antitrypanosomal activity against Trypanosoma cruzi MHOM/Pe/2011/Arequipa(DTU V) amastigote form infected in BALB/c mouse assessed as reduction in spleen enlargement at 20 mg/kg, po administered for 5 days starting at 100 days post infection and measured after 145 days post infection; type: functional, organism-based; conditions: time 5.0 day
Trypanosoma cruzi [10] = assay: Antitrypanosomal activity against Trypanosoma cruzi TINF/CH/1956/Tulahuen (DTU VI) amastigote form infected in Vero cells assessed as parasite growth inhibition incubated for 72 hrs by Giemsa-staining based assay; type: functional, organism-based
Trypanosoma cruzi [11] = assay: Inhibition of nucleic acid level in Trypanosoma cruzi MHOM/Pe/2011/Arequipa(DTU V) epimastigote form at IC25 concentration after 72 hrs by Rho (FITC-A) staining based flow cytometric analysis; type: functional
[12] = Toxicity in BALB/c mouse infected with Trypanosomal Trypanosoma cruzi MHOM/Pe/2011/Arequipa(DTU V) assessed as effect on LDH level at 20 mg/kg, po administered for 5 days starting at 9 days post infection and measured after 2 days post treatment; type: organism-based; conditions: in vivo, 120 h, time 5 day
[13] = Selectivity index, ratio of IC50 for cytotoxicity against African green monkey Vero cells to IC50 for antitrypanosomal activity against Trypanosoma cruzi TINF/CH/1956/Tulahuen (DTU VI) amastigote form infected in Vero cells; type: toxicity, cell-based; conditions: read-out: Ratio IC50
Trypanosoma cruzi [14] = assay: Antitrypanosomal activity against Trypanosoma cruzi MHOM/Pe/2011/Arequipa(DTU V) amastigote form infected in BALB/c mouse assessed as parasite free organ tissue ratio at 20 mg/kg, po administered for 5 days starting at 100 days post infection and measured up to 145 days post infection by PCR analysis relative to control; type: functional; conditions: time 5 day
[15] = Inhibition of Trypanosoma cruzi MHOM/Pe/2011/Arequipa(DTU V) epimastigote form Fe-SOD by UV-VIS spectrophotometric method
[16] = Toxicity in BALB/c mouse infected with Trypanosomal Trypanosoma cruzi MHOM/Pe/2011/Arequipa(DTU V) assessed as effect on urea level at 20 mg/kg, po administered for 5 days starting at 9 days post infection and measured after 2 days post treatment; type: organism-based; conditions: in vivo, 120 h, time 5 day
[17] = Toxicity in BALB/c mouse infected with Trypanosomal Trypanosoma cruzi MHOM/Pe/2011/Arequipa(DTU V) assessed as effect on total bilirubin level at 20 mg/kg, po administered for 5 days starting at 100 days post infection and measured after 2 days post treatment; type: organism-based; conditions: in vivo, 120 h, time 5 day
[18] = Toxicity in BALB/c mouse infected with Trypanosomal Trypanosoma cruzi MHOM/Pe/2011/Arequipa(DTU V) assessed as effect on CK-MB level at 20 mg/kg, po administered for 5 days starting at 9 days post infection and measured after 2 days post treatment; type: organism-based; conditions: in vivo, 120 h, time 5 day
[19] = Toxicity in BALB/c mouse infected with Trypanosomal Trypanosoma cruzi MHOM/Pe/2011/Arequipa(DTU V) assessed as reduction in survival at 20 mg/kg, po administered for 5 days starting at 9 days post infection and measured up to 145 days post infection; type: organism-based; conditions: in vivo, 120 h, time 5 day
Trypanosoma cruzi [20] = assay: Antitrypanosomal activity against Trypanosoma cruzi MHOM/Pe/2011/Arequipa(DTU V) amastigote form infected in BALB/c mouse assessed as reduction in parasite growth at 20 mg/kg, po administered for 5 days starting at 9 days post infection and measured up to 106 days post infection by ELISA assay; type: functional, organism-based; conditions: time 5.0 day
Trypanosoma cruzi [21] = assay: Antitrypanosomal activity against Trypanosoma cruzi MHOM/Pe/2011/Arequipa(DTU V) epimastigote form assessed as disruption of pyruvate level at IC25 concentration incubated for 72 hrs by NMR spectrometric analysis; type: functional, organism-based
Trypanosoma cruzi [22] = assay: Antitrypanosomal activity against Trypanosoma cruzi MHOM/Pe/2011/Arequipa(DTU V) epimastigote form assessed as parasite growth inhibition incubated for 48 hrs by resazurin dye based assay; type: functional, organism-based
[23] = Toxicity in BALB/c mouse infected with Trypanosomal Trypanosoma cruzi MHOM/Pe/2011/Arequipa(DTU V) assessed as effect on ALT/GPT level at 20 mg/kg, po administered for 5 days starting at 9 days post infection and measured after 2 days post treatment; type: organism-based; conditions: in vivo, 120 h, time 5 day
[24] = Selectivity index, ratio of IC50 for cytotoxicity against African green monkey Vero cells to IC50 for antitrypanosomal activity against Trypanosoma cruzi IRHOD/CO/2008/SN3 (DTU I) blood stream trypomastigote form; type: toxicity, cell-based; conditions: read-out: Ratio IC50
Vero = assay: Cytotoxicity against African green monkey Vero cells assessed as reduction in cell viability after 48 hrs by resazurin dye based assay; conditions: Chlorocebus sabaeus
[25] = Selectivity index, ratio of IC50 for cytotoxicity against African green monkey Vero cells to IC50 for antitrypanosomal activity against Trypanosoma cruzi IRHOD/CO/2008/SN3 (DTU I) epimastigote form; type: toxicity, cell-based; conditions: read-out: Ratio IC50
Trypanosoma cruzi [26] = assay: Antitrypanosomal activity against Trypanosoma cruzi TINF/CH/1956/Tulahuen (DTU VI) blood stream trypomastigote form assessed as parasite growth inhibition incubated for 24 hrs by resazurin dye based assay; type: functional, organism-based
[27] = Toxicity in BALB/c mouse infected with Trypanosomal Trypanosoma cruzi MHOM/Pe/2011/Arequipa(DTU V) assessed as reduction in weight at 20 mg/kg, po administered for 5 days starting at 100 days post infection and measured up to 145 days post infection; type: organism-based; conditions: in vivo, 120 h, time 5 day
Trypanosoma cruzi [28] = assay: Antitrypanosomal activity against Trypanosoma cruzi IRHOD/CO/2008/SN3 (DTU I) amastigote form infected in Vero cells assessed as parasite growth inhibition incubated for 72 hrs by Giemsa-staining based assay; type: functional, organism-based

With `COC(=O)[C@]1(C)CCC[C@]2(C)C3=C(C=C[C@@H]12)C(=O)C(C(C)C)=CC3=O` the Activity [1] was “Non-Toxic”, the Activity [2] was “Non-Toxic” and the Activity (Trypanosoma cruzi [3]; time 5 day) was 52%. For the same compound, the IC50 (Trypanosoma cruzi [4]) was 1.6 µM, the Activity (Trypanosoma cruzi [5]) was “Active” and the IC50 (Trypanosoma cruzi [6]) was 2.1 µM. The Activity [7] was “Non-Toxic”, the selectivity ratio [8] was over 40 and the Activity (Trypanosoma cruzi [9]) was “Active”. For the same compound, the IC50 (Trypanosoma cruzi [10]) was 7.1 µM, the inhibition (Trypanosoma cruzi [11]) was 50.4% and the Activity [12] was “Non-Toxic”. It also gave a selectivity ratio [13] of over 40, an Activity (Trypanosoma cruzi [14]) of 57.1% and an IC50 [15] of 6.5 µM. For the same compound, the Activity [16] was “Non-Toxic”, the Activity [17] was “Non-Toxic” and the Activity [18] was “Non-Toxic”. For the same compound, the Activity [19] was “Non-Toxic”, the Activity (Trypanosoma cruzi [20]) was “Active” and the Activity (Trypanosoma cruzi [21]) was “inactive”. For the same compound, the IC50 (Trypanosoma cruzi [22]) was 1.4 µM, the Activity [23] was “Non-Toxic” and the selectivity ratio [24] was over 40. For the same compound, the IC50 (Vero) was 72.2 µM, the selectivity ratio [25] was over 15 and the IC50 (Trypanosoma cruzi [26]) was 1.6 µM. The Activity [27] was “Non-Toxic” and the IC50 (Trypanosoma cruzi [28]) was 5.4 µM.
For `CC(C)c1cc(C=O)c([C@@]2(C)CCCC(C)(C)C2=O)cc1O`, the Activity [1] was “Non-Toxic”, the Activity [2] was “Non-Toxic” and the Activity (Trypanosoma cruzi [3]; time 5.0 day) was “Active”. The IC50 (Trypanosoma cruzi [4]) was 12.5 µM, the Activity (Trypanosoma cruzi [5]) was “Active” and the IC50 (Trypanosoma cruzi [6]) was 13.5 µM. For the same compound, the Activity [7] was “Non-Toxic”, the selectivity ratio [8] was over 40 and the IC50 (Trypanosoma cruzi [10]) was 8.8 µM. The inhibition (Trypanosoma cruzi [11]) was 36.4%, the Activity [12] was “Non-Toxic” and the selectivity ratio [13] was over 40. For the same compound, the Activity (Trypanosoma cruzi [14]) was 42.9%, the IC50 [15] was over 100 µM and the Activity [16] was “Non-Toxic”. For the same compound, the Activity [17] was “Non-Toxic”, the Activity [18] was “Non-Toxic” and the Activity [19] was “Non-Toxic”. The Activity (Trypanosoma cruzi [21]) was “inactive”, the IC50 (Trypanosoma cruzi [22]) was 18.5 µM and the Activity [23] was “Non-Toxic”. The selectivity ratio [24] was over 40, the IC50 (Vero) was 624 µM and the selectivity ratio [25] was over 15. For the same compound, the IC50 (Trypanosoma cruzi [26]) was 9.3 µM, the Activity [27] was “Non-Toxic” and the IC50 (Trypanosoma cruzi [28]) was 7.2 µM.
